Patent US11071721B2, “Bicyclic amide compounds and methods of use thereof” (Genentech, Inc., priority 2016, dated 2021)

The compounds below were run against human RIP1 kinase domain (2-375) (Homo sapiens (Human), UniProt Q13546) (assay: RIP1 kinase inhibition assay (Transcreener ADP biochemical enzyme assay)). Conditions: Ki app (Morrison tight-binding fit); 50 nM enzyme, 50 uM ATP, 2 hours incubation, fluorescence polarization.
Outline: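 Baculovirus-expressed human RIP1 kinase domain (2-375), 50 nM, incubated 2 h with compound in pH 7.5 Hepes with 30 mM MgCl2, 1 mM DTT, 50 uM ATP, 0.5% DMSO. ADP detected by Transcreener fluorescence polarization (antibody/AlexaFluor 633 tracer displacement). Ki^app from Morrison tight-binding fit of fractional activity.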

Chain of human RIP1 kinase domain (2-375) (Q13546 2-375): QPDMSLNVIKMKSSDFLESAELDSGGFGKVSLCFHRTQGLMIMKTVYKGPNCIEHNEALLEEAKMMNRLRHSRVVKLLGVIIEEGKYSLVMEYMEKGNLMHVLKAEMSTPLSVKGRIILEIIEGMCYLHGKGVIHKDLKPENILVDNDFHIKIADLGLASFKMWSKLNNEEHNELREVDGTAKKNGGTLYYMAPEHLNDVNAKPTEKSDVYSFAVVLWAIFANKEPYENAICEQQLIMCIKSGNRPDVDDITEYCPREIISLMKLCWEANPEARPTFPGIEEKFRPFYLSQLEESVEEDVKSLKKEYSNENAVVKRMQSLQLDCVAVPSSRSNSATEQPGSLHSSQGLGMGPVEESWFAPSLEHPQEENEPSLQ

| SMILES | Ki [nM] |
| --- | --- |
| O=C(c1nc2n(n1)[C@H](c1ccccc1)C[C@@H]2F)N1CCc2cccnc2C1 (stereo in doubt) [Example 74, 6,8-dihydro-5H-1,7-naphthyridin-7-yl-[rac-(5S, 7S)-7-fluoro-5-phenyl-6,7-dihydro-5H-pyrrolo [1,2-b][1,2,4]triazol-2-yl]methanone] | 24 |
| O=C(c1nc2n(n1)[C@@H](c1ccccc1)C[C@H]2F)N1CCc2ccccc2C1 (stereo in doubt) [Example 76] | 31 |
| O=C(c1nc2n(n1)[C@H](c1ccccc1)C[C@@H]2F)N1CCC(F)(F)C1 (stereo in doubt) [Example 98, (3,3-difluoropyrrolidin-1-yl)-[rac-(5S,7S)-7-fluoro-5-phenyl-6,7-dihydro-5H-pyrrolo [1,2-b][1,2,4]triazol-2-yl]methanone] | 36 |
| O=C(c1nc2n(n1)[C@H](c1ccccc1)C[C@@H]2F)N1CCc2ccccc2C1 (stereo in doubt) [Example 99, 3,4-dihydro-1H-isoquinolin-2-yl-[rac-(5S,7S)-7-fluoro-5-phenyl-6,7-dihydro-5H-pyrrolo[1,2-b][1,2,4]triazol-2-yl]methanone] | 13 |
| O=C(c1nc2n(n1)[C@H](c1ccccc1)C[C@@H]2F)N1CC(F)(F)C1 [Example 3, (3,3-difluoroazetidin-1-yl)-[(5S,7S)-7-fluoro-5-phenyl-6,7-dihydro-5H-pyrrolo[1,2-b][1,2,4]triazol-2-yl]methanone] | 9 |
| O=C(c1cc2n(n1)CC[C@@H]2c1ccccc1)N1CC(F)(F)C1 [Example 9, (3,3-difluoroazetidin-1-yl)-[(4R)-4-phenyl-5,6-dihydro-4H-pyrrolo[1,2-b]pyrazol-2-yl]methanone] | 2660 |
| CCC(F)(F)n1ncc2cnc(C(=O)N3CC(F)(F)C3)cc21 [Example 103] | 6700 |
